Reference: US10370324B2, “Phenyl and pyridinyl hydroxamic acids” (Acetylon Pharmaceuticals, Inc., priority 2016, dated 2019)

Assays:
HDAC2 = molecular target: T1, HDAC2 (Homo sapiens, UniProt Q92769); experiment: HDAC enzyme assay, HDAC2; type: biochemical; conditions: 0.2 ng/ml enzyme, 10 μM tripeptide substrate; given as a range
T1 construct: purchased BPS Biosciences
Protocol: (§1) Compounds for testing were diluted in DMSO to 50 fold the final concentration and a ten-point three-fold dilution series was made. The compounds were diluted in assay buffer (50 mM HEPES, pH 7.4, 100 mM KCl, 0.001% Tween-20, 0.05% BSA, 20 ⊐M TCEP) to 6-fold their final concentration. The HDAC enzymes (purchased from BPS Biosciences) were diluted to 1.5-fold their final concentration in assay buffer. The tripeptide substrate and trypsin at 0.05 μM final concentration were diluted in assay buffer at 6-fold their final concentration. The final enzyme concentrations used in these assays were 3.3 ng/ml (HDAC1), 0.2 ng/ml (HDAC2), 0.08 ng/ml (HDAC3) and 2 ng/ml (HDAC6). The final substrate concentrations used were 16 μM (HDAC1), 10 μM (HDAC2), 17 μM (HDAC3) and 14 μM (HDAC6).
(§2) Five μL of compounds and 20 μL of enzyme were added to wells of a black, opaque 384 well plate in duplicate. Enzyme and compound were incubated together at room temperature for 10 minutes. Five μL of substrate was added to each well, the plate was shaken for 60 seconds and placed into a Victor 2 microtiter plate reader. The development of fluorescence was monitored for 60 min and the linear rate of the reaction was calculated. The IC50 was determined using Graph Pad Prism by a four parameter curve fit.

HDAC6 = molecular target: T2, HDAC6 (Homo sapiens, UniProt Q9UBN7); experiment: HDAC enzyme assay, HDAC6; type: biochemical; conditions: 2 ng/ml enzyme, 14 μM tripeptide substrate; given as a range
T2 construct: purchased BPS Biosciences
T2 sequence (Q9UBN7 1-1215): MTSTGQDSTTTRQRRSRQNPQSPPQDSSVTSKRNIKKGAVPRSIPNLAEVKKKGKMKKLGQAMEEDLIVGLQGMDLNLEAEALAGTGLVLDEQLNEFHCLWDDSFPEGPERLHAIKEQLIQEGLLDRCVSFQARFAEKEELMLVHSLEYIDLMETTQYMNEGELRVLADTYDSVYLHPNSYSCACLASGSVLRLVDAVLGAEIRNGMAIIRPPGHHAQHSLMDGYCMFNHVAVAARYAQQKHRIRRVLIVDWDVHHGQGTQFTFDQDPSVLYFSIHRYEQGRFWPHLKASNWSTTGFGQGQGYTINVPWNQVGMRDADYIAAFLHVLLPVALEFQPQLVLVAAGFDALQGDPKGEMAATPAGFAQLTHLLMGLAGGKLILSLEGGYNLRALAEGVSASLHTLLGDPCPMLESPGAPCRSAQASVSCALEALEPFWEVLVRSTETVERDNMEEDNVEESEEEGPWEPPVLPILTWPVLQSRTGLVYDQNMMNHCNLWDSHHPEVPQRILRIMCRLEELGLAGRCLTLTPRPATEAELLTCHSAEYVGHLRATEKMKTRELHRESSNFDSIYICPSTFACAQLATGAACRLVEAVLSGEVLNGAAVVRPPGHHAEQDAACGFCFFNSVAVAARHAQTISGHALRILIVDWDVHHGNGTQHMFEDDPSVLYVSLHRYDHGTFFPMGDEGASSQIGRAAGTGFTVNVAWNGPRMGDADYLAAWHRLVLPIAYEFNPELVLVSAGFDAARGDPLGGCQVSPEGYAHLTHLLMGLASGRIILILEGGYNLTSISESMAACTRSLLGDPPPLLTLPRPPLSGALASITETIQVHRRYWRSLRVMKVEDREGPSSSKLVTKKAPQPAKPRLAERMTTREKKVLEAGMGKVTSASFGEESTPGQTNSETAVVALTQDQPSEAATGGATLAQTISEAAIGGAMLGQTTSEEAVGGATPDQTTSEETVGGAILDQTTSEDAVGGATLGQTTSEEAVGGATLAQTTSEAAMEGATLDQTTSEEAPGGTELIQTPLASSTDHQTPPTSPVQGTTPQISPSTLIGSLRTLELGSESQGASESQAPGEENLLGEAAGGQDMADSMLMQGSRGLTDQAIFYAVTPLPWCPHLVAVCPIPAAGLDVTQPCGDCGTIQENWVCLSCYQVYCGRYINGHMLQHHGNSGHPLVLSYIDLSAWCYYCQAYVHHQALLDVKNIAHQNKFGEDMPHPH
Protocol: as §1, §2

[1] = Rat pharmacokinetic studies; type: in vivo; conditions: male SD rats, IV 1 mg/kg, plasma
Protocol: Male SD rats were fasted overnight. Compounds of the invention were dissolved in dimethyl acetamide at 10 times the final concentration, then Solutol HS 15 (BASF) was added to a final concentration of 10%. Finally 80% saline was added and vortexed to achieve a clear solution. For the IV dosing three animals were injected via the foot dorsal vein with 1 mg/kg compound. For the PO dosing 5 mg/kg of compound was delivered by oral gavage. Blood was collected via the tail vein into K2EDTA tubes at 5 minutes, 15 minutes, 30 minutes, 1 hour, 2 hours, 4 hours, 8 hours and 24 hours after dosing. The blood was centrifuged at 2000 g for 5 minutes at 4° C. to obtain plasma. The plasma was extracted with acetonitrile and the level of compound was analyzed by LC/MS/MS. The level of compound in plasma was calculated from a standard curve in rat plasma. The IV clearance and area under the curve were calculated using WinNonLin software. The dose adjusted area under the curve for the IV and oral dosing were used to calculate the oral bioavailability.

HDAC1 = molecular target: T3, HDAC1 (Homo sapiens, UniProt Q13547); experiment: HDAC enzyme assay, HDAC1; type: biochemical; conditions: 3.3 ng/ml enzyme, 16 μM tripeptide substrate; given as a range
T3 construct: purchased BPS Biosciences
Protocol: as §1, §2

HDAC3 = molecular target: T4, HDAC3 (Homo sapiens, UniProt O15379); experiment: HDAC enzyme assay, HDAC3; type: biochemical; conditions: 0.08 ng/ml enzyme, 17 μM tripeptide substrate; given as a range
T4 construct: purchased BPS Biosciences
Protocol: as §1, §2

[2] = Mouse pharmacokinetic studies; type: in vivo; conditions: male C57BL/6 mice, intraperitoneal 5 mg/kg; for Brain AUC: brain homogenate; for AUC / Kp: mouse, ip; for AUC: plasma; for Kp: from AUC values of brain and plasma, read-out: Brain/plasma ratio
Protocol: Male C57BL/6 mice were fasted overnight. Compounds were dissolved in dimethyl acetamide at 10 times the final concentration, then Solutol HS 15 (BASF) was added to a final concentration of 10%. Finally 80% saline was added and vortexed to achieve a clear solution. Fifteen animals were injected intraperitonealy with 5 mg/kg compound. Blood was collected by retro-orbital bleed at 5 minutes, 15 minutes, 30 minutes, 1 hour, 2 hours, 4 hours, 8 hours and 24 hours after dosing. At 5 minutes, 30 minutes, 1 hour and 4 hours after dosing three animals per time point were sacrificed and brains were removed. The blood was centrifuged at 2000 g for 5 minutes at 4° C. to obtain plasma. Brain samples were homogenized in PBS. The plasma and brain homogenate were extracted with acetonitrile and the level of compound was analyzed by LC/MS/MS. The level of compound in plasma was calculated from a standard curve in rat plasma and the level in brain was calculated from a standard curve in brain homogenate. The area under the curve in plasma and brain were calculated using WinNonLin software. The brain to plasma ratio was determined using the area under the curve values for the two compartments.

T1 sequence (Q92769 whole entry): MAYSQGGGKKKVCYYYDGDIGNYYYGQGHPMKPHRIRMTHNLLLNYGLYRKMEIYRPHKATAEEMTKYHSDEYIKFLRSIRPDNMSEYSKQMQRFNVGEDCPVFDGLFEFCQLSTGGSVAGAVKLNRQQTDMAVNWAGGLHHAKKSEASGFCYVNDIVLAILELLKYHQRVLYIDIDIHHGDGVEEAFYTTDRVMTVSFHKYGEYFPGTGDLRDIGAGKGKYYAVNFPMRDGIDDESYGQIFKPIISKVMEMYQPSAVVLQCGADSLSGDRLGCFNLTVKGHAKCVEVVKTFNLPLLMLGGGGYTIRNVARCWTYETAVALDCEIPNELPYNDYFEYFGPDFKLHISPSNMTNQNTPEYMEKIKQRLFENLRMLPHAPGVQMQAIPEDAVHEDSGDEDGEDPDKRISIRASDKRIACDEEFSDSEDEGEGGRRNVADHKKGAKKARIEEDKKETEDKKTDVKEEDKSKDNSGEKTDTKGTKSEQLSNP
T4 sequence (O15379 whole entry): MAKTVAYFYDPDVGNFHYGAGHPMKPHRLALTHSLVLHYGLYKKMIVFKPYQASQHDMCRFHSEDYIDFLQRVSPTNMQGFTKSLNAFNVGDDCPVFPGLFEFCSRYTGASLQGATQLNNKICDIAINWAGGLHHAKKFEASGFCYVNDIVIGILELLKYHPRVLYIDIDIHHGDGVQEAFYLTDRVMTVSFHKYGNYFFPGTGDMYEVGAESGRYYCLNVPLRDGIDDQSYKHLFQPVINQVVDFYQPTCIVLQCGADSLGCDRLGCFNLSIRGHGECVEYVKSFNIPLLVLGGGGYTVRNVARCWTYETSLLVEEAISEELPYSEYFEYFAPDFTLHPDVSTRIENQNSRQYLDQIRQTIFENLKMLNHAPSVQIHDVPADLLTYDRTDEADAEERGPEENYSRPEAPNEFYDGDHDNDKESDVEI
T4 sequence (Q9Y618 395-489 partner limits assumed): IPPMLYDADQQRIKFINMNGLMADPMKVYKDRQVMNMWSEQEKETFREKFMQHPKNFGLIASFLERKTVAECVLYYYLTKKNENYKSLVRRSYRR
T3 sequence (Q13547 whole entry): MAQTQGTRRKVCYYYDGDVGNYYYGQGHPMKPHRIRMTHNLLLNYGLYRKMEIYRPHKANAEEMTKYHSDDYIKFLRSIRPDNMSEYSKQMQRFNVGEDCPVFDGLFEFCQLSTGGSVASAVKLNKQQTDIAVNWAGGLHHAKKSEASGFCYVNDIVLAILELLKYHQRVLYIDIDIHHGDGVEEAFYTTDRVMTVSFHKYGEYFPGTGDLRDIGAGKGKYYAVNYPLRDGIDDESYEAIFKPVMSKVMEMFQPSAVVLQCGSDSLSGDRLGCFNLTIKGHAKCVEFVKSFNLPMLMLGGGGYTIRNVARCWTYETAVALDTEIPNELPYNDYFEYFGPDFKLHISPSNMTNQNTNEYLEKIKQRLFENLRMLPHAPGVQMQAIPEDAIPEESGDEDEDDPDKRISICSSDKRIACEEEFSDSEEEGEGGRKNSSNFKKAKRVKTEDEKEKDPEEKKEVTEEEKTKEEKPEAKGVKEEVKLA

SMILES | IC50 (HDAC2) [nM] | IC50 (HDAC6) [nM] | clearance [1] [mL/min/kg] | IC50 (HDAC1) [nM] | IC50 (HDAC3) [nM] | Brain AUC [2] [ng·h/mL] | AUC [2] [ng·h/mL] | Kp [2]
O=C(NO)c1ccc(NCc2ccccc2)cc1 [Compound 011] | 800 to 900 | 15 to 25 | 91.7 to 117 | 700 to 800 | 1200 to 1300 |  |  | 
O=C(NO)c1ccc(NCc2cc(Cl)ccc2Cl)cc1 [Compound 004] | 100 to 200 | 4 to 8 |  | 100 to 200 | 100 to 200 |  |  | 
O=C(NO)c1ccc(NCc2ccccc2)cn1 [Compound 012] |  |  |  |  |  | 100 to 150 | 75 to 125 | 1 to 3
COc1ccc(OC)c(CNc2ccc(C(=O)NO)cc2)c1 [Compound 006] | 900 to 1100 | 30 to 40 |  | 450 to 600 | 900 to 1100 |  |  | 
O=C(NO)c1ccc(NC2(c3ccccc3)CCCCC2)cc1 [Compound 010] | 1500 to 2000 | 4 to 8 | 33.3 to 66.7 | 1000 to 2000 | 6000 to 7000 |  |  | 
O=C(NO)c1ccc(NCc2cc(F)ccc2F)cc1 [Compound 007] | 450 to 600 | 4 to 8 |  | 450 to 600 | 700 to 800 |  |  | 
O=C(NO)c1ccc(NC2(c3cc(F)ccc3F)CCOCC2)cc1 [Compound 008] | 200 to 300 | 0.1 to 1 | 83.3 to 167 | 150 to 250 | 1000 to 1100 |  |  | 
O=C(NO)c1ccc(NC(c2ccccc2)c2ccccc2)cn1 [Compound 002] |  |  |  |  |  | 450 to 600 | 200 to 250 | 1 to 5
O=C(NO)c1ccc(N(c2ccccc2)c2ccccc2)cn1 [Compound 013] |  |  |  |  |  | 600 to 800 | 150 to 250 | 2 to 6
COc1ccc(Cl)cc1CNc1ccc(C(=O)NO)cc1 [Compound 001] | 200 to 400 | 1 to 6 | 16.7 to 83.3 | 200 to 400 | 200 to 400 |  |  | 
COc1ccc(F)cc1CNc1ccc(C(=O)NO)cc1 [Compound 005] | 500 to 800 | 1 to 6 | 167 to 333 | 500 to 800 | 500 to 800 |  |  | 
O=C(NO)c1ccc(NC2(c3ccccc3)CC2)cc1 [Compound 009] | 250 to 350 | 0.5 to 2.5 | 50 to 117 | 50 to 100 | 400 to 500 |  |  | 
